Measurements reported in patent US20260248918A1, “COMPOSITIONS AND METHODS OF SUPPRESSING AVERSIVENESS OF PHARMACEUTICALS AND INGESTIBLE MATERIALS” (Monell Chemical Senses Center, priority 2019, published 2026).
Structures can show the parent of a compound that is named as a salt. Values belong to the compound of their own block, whether it stands above or below them.

What was measured:
TAS2R14 = molecular target: T1, TAS2R14 (Homo sapiens, UniProt Q9NYV8); test: Response profile of TAS2Rs to target compounds: TAS2R14; assay type: cell-based; details: FIG. 4: Praziquantel 0.75 mM, L-praziquantel 0.1 mM, Dihydroartemisinin 2 mM (not fully dissolved), Piperaquine 0.5 mM, TAF 1 mM, Ritonavir 1 mM, Zinc sulfate 20 mM
T1 sequence (Q9NYV8 1-317): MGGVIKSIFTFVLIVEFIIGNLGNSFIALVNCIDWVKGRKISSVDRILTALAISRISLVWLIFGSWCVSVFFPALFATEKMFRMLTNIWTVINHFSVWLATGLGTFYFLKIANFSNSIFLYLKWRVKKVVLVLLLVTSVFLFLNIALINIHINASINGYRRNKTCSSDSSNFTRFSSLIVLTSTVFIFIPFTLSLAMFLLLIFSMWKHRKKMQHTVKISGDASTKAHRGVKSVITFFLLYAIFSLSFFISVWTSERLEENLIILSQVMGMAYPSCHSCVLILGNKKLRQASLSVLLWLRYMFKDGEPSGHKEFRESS
Experimental: (§1) FIG. 4 is a table showing response profiles of TAS2Rs to indicated target compounds at indicated concentrations. Praziquantel: 0.75 mM, L-praziquantel: 0.1 mM, Zinc sulfate: 20 mM, Dihydroartemisinin: 2 mM (not fully dissolved), Piperaquine, 0.5 mM, Tenofovir (TAF), 1 mM and Ritonavir, 1 mM. Symbols: + means that there was activation; a − negative sign means that there was no significant activation of the receptor; a “larger + sign” means that receptor(s) were most sensitive to the compound (activated at lower concentrations.
(§2) Using a primary hTBEC platform, a high throughput screening (HTS) was conducted with more than 2,000 small molecular weight purified phytochemicals and botanical extracts. The screen identified 40 antagonists that suppressed taste cell activation by target APIs. […] TAS2R1 is responsive to piperaquine and tenofovir. (See FIG. 4)

TAS2R39 [1] = molecular target: T2, TAS2R39 (Homo sapiens, UniProt P59534); test: Response profile of TAS2Rs to target compounds: TAS2R39; assay type: cell-based; design: expressed in transfected cells; host or cells: HEK; details: FIG. 4: Piperaquine 0.5 mM, Tenofovir (TAF) 1 mM, Dihydroartemisinin 2 mM (not fully dissolved)
T2 sequence (P59534 1-338): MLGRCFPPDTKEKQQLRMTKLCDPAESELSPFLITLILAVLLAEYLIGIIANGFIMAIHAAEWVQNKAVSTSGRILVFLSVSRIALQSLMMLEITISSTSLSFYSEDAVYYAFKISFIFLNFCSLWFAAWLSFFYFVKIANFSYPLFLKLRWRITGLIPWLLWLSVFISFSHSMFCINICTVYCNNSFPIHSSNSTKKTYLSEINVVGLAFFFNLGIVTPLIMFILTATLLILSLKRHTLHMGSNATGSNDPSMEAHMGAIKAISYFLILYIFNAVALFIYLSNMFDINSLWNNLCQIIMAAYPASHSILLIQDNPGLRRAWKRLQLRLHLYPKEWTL
Experimental: as §1, §2

TAS2R1 = molecular target: T3, TAS2R1 (Homo sapiens, UniProt Q9NYW7); test: Response profile of TAS2Rs to target compounds: TAS2R1; assay type: cell-based; details: FIG. 4: Piperaquine 0.5 mM, Tenofovir (TAF) 1 mM
T3 sequence (Q9NYW7 1-299): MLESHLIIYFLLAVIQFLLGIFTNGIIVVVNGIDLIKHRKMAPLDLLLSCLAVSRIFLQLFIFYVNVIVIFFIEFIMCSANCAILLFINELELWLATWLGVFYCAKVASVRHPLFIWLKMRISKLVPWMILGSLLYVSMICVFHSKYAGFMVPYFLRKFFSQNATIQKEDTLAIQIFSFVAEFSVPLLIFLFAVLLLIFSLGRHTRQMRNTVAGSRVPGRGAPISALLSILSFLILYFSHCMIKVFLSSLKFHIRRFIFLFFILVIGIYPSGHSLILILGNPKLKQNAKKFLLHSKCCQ
Experimental: as §1, §2

human subjects = test: Human sensory testing (gLMS) of API bitterness with blocker, as pre-rinse or admixture; assay type: in vivo; details: added as sensory excipients to APIs
Excerpt: Methods of evaluating the sensory properties of the API and admixtures with the blocker compounds of Formula A are adopted from Breslin PA, and Tharp CD, “Reduction of saltiness and bitterness after a chlorhexidine rinse,” Chem Senses. 2001 February; 26(2):105-16. More details are illustrated below.
Subjects participate in the study after providing informed consent. Gender of the subjects is balanced between male and female. The subjects are adults with ages ranging from 20 years old to 50 years old. […] The participants are asked to refrain from eating, drinking, or chewing gum for 1 hr prior to testing. Subjects are trained to use the General Labeled Magnitude Scale (gLMS) following standard published procedures. See. e.g., Breslin P A, and Tharp C D. “Reduction of saltiness and bitterness after a chlorhexidine rinse,” Chem Senses. 2001 February; 26(2): 105-16; Keast and Breslin, “Bitterness suppression with zinc sulfate and Na-cyclamate: a model of combined peripheral and central neural approaches to flavor modification.” Pharm Res. 2005 November; 22(11):1970-7. Epub 2005 Aug. 26; Green et al, “Evaluating the ‘Labeled Magnitude Scale’ for measuring sensations of taste and smell.” Chem Senses. 1996 June; 21(3):323-34; Barry G. Green, et al, “Derivation and evaluation of a semantic scale of oral sensation magnitude with apparent ratio properties,” Chemical Senses, Volume 18, Issue 6, 1 Dec. 1993, Pages 683-702; and Bartoshuk L M, “Comparing sensory experiences across individuals: recent psychophysical advances illuminate genetic variation in taste perception.” Chem Senses. 2000 August; 25(4):447-60.
The selected API (in racemic or L form as applicable) is diluted/dissolved in deionized (di) filtered water upon use into various concentrations. […] The API is prepared and dissolved in deionized filtered water or in […] 6-methylflavone to a final concentration. All solutions are stored on ice or at 4° C. to 8° C. and brought up to room temperature prior to testing.
The following testing protocol is performed. The tested solutions are provided to the subjects in random order. Subjects rinsed with di water at least four times over a 2-minute period prior to tasting each solution. The subjects are instructed to wear nose clips to eliminate olfactory input, pour the whole solution in their mouth for 3-5 seconds, and rate the perceived sensation (including bitterness, sourness, astringency, burning, stinging and nausea) intensity of the solution while it remained in the mouth, prior to expectorating. Taste intensity is recorded on a computerized gLMS, analyzed and plotted.

TAS2R39 [2] = molecular target: T2, TAS2R39; details: reported in Roland et al. 2014, data not shown; cited from earlier work

Compound: zinc
Reduction of API bitterness by sensory excipients (human subjects): significantly reduce

Compound: CC(C)OC(=O)[C@H](C)N[P@](=O)(CO[C@H](C)Cn1cnc2c(N)ncnc21)Oc1ccccc1 [TAF, tenofovir alafenamide fumarate]
Activation of TAS2R39 (TAS2R39 [1]): one of the most responsive receptors | Activation of TAS2R1 (TAS2R1): responsive

Compound: COc1ccc2oc(-c3ccccc3)cc(=O)c2c1 [6-methoxyflavone]
Inhibition of hTAS2R39 activation (TAS2R39 [2]): unable to inhibit

Compound: sodium
Reduction of API bitterness by sensory excipients (human subjects): significantly reduce

Continued, values first:

Activation of TAS2R14 (TAS2R14): one of most responsive receptors
Compound: CC(C)c1nc(CN(C)C(=O)N[C@H](C(=O)N[C@@H](Cc2ccccc2)C[C@H](O)[C@H](Cc2ccccc2)NC(=O)OCc2cncs2)C(C)C)cs1 [Ritonavir]

Activation of TAS2R39 (TAS2R39 [1]): one of the most responsive receptors | Activation of TAS2R1 (TAS2R1): responsive
Compound: Clc1ccc2c(N3CCN(CCCN4CCN(c5ccnc6cc(Cl)ccc56)CC4)CC3)ccnc2c1 [Piperaquine]

Activation of TAS2R14 (TAS2R14): one of most responsive receptors
Compound: O=C(C1CCCCC1)N1CC(=O)N2CCc3ccccc3C2C1 (racemic) [Praziquantel]

Activation of TAS2R14 (TAS2R14): one of most responsive receptors
Compound: O=C(C1CCCCC1)N1CC(=O)N2CCc3ccccc3[C@@H]2C1 [L-praziquantel]
